Square brackets hold non-standard residues; d marks the D form. Ends that are not written are not given here. Cit = NC(=O)NCCC[C@H](N)C(=O)O
What was measured:
splenocytes [1] = experiment: Peptide immunisation and ex vivo Elispot, DR4 mice; assay type: in vivo, HLA-DR4 transgenic mouse
Experimental: (§1) C57BL/6 mice (Charles River, UK), HLA-DR4 mice (Taconic, USA), HHDII/DR1 mice (Pasteur institute, France) and the HHD/HLA-DP4 transgenic strain of mouse as described in patent WO2013/017545 A1 (EMMA repository, France) were used, aged between 8 and 12 weeks, and cared for by the staff at Nottingham Trent University. All work was carried out under a Home Office project licence. Peptides were dissolved in PBS to 1 mg/ml and then emulsified (a series of dilutions) with different adjuvants: CpG and MPLA 6 μg/mouse of each (Invivogen, UK), Incomplete Freund's 50 μl/mouse (Sigma, UK), poly I:C 10 μg/mouse (Invivogen, UK), Imiquimod 25 μg/mouse (Invivogen, UK) and GMCSF 10 μg/mouse (Peprotech, UK). Peptides (25 μg/mouse) were injected subcutaneously at the base of the tail. DNA (1 μg/mouse) was coated onto 1.0 μm gold particles (BioRad, Hemel Hempstead, UK) using the manufacturer's instructions and administered intradermally by genegun (BioRad). Homspera (10 nM/mouse) (PeptideSynthetics, UK) was injected intradermally with genegun immunisation. Mice were immunized at either day 0 for peptide immunisation or days, 0 and 7 for genegun immunisation, unless otherwise stated. Spleens were removed for analysis at day 14 for peptide and day 20 for peptide or genegun immunisation unless stated otherwise.
(§2) Elispot assays were performed using murine IFNγ, IL-17 and IL-10 capture and detection reagents according to the manufacturer's instructions (Mabtech, Sweden). In brief, anti-IFNγ, IL-17 and IL-10 antibodies were coated onto wells of 96-well Immobilin-P plate. Synthetic peptides (at a variety of concentrations) and 5×10^5 per well splenocytes were added to the wells of the plate in triplicate. Tumour target cells were added where relevant at 5×10^4/well in triplicate and plates incubated for 40 hrs at 37° C. After incubation, captured IFN and IL-10 were detected by biotinylated anti-IFNγ and IL-10 antibodies and developed with a streptavidin alkaline phosphatase and chromogenic substrate. Spots were analysed and counted using an automated plate reader (Cellular Technologies Ltd).

splenocytes [2] = experiment: Peptide immunisation and ex vivo Elispot, DP4 mice; assay type: in vivo, HHD/HLA-DP4 transgenic mouse
Experimental: as §1, §2

LLCDR4 tumour = experiment: Lewis lung carcinoma LLC2 with constitutive DR4 (LLCDR4) challenge; assay type: in vivo, DR4 mice; details: challenge four days before peptide immunisation; all controls died by day 48
Experimental: as §1, with “Mice were immunized at either day 0 for peptide immunisation or days, 0 and 7 for genegun immunisation, unless otherwise stated. Spleens were removed for analysis at day 14 for peptide and day 20 for peptide or genegun immunisation unless stated otherwise.” left out
For tumour challenge experiments mice were challenged with 2.5×10^4 B16 DR4 cells or 1×10^6 LLC2/LLC2 DR4 cells, […] above. Tumour growth was monitored at 3-4 days intervals and mice were humanely euthanized once tumour reached ≥10 mm in diameter.

PBMCs [3] = experiment: Thymidine proliferation assay on healthy donor PBMCs; assay type: cell-based, human; details: for healthy donors showing a proliferative response: PBMCs from 6 healthy donors, peptide 10 μg/ml, days 4, 7, 11
Experimental: PBMC were isolated from freshly drawn heparinised blood by Ficol-Hypaque (Sigma) gradient centrifugation. PBMC (1.5×10^6 cells/well) were stimulated with single peptides (final concentration 10 μg/ml) in RPMI containing 5% pooled autologous human serum, 2 mM glutamine, 20 mM HEPES and Penicillin-streptomycin (1%) in a final volume of 2 ml. Stimulation with purified protein derivative, PPD (final concentration 10 μg/ml) served as a positive control for the proliferative capacity of PBMC. As a negative control PBMC were incubated with medium alone. The PBMC were cultured at 37° C. in an atmosphere of 5% CO2 for 4, 7 and 11 days. To assess proliferation at these times points 100 μl in triplicate from each culture was aliquoted into a round bottom well of a 96 well plate and 3H-thymidine added (0.0185 MBq/well) and incubated at 37° C. for a further 8 hours. The cultures were harvested onto unifilter plates and incorporation of ^3H-thymidine was determined by β-scintillation counting. The results were assessed by calculating the stimulation index (SI) as the ratio of the mean of counts per minute (cpm) of epitope-stimulated to the mean of unstimulated cultures. The proliferative assay was considered positive when SI >2.5.

PBMCs [4] = experiment: Luminex cytokine analysis of PBMC culture supernatants; assay type: cell-based, human
Experimental: A three-step indirect procedure was used for the multiplexed Luminex assay (Invitrogen) for IgG antibodies to IL-10, IL-17, IFNy, TNFα, IL-2 & IL-4. Standard, control, and unknown sera were diluted 1:2 in 50% assay diluent buffer (Invitrogen) & 50% serum free RPMI. Serial standard dilutions were included in each assay. Each dilution of standard, control, and unknown sera was mixed with a set of coupled Luminex microspheres in 96-well filtration plates (Millipore Multiscreen; Millipore Corporation, Bedford, Mass.) and incubated for 2 hours at room temperature with shaking. Microspheres were collected by vacuum filtration and washed with PBST. Biotinylated detector antibody was added to each well for 1 hour at room temperature with shaking. Microspheres were collected by vacuum filtration and washed with PBST. Streptavidin conjugated R-phycoerythrin—was added to each well. Following a 30 minute incubation and a wash step, microspheres were resuspended in PBST, and read in a Biorad BioPlex Luminex analyzer equipped with an XY platform. Data acquisition and analysis performed with Luminex software (BioPlex Systems)

[5] = DR4 mice immunised with human 241cit
[6] = DR4 mice, single immunisation 25 μg human 241cit + CpG/MPLA
[7] = DP4 mice immunised with human 241-260cit

Which “IFN response with GM-CSF” value (splenocytes [1]; 1 or 3 doses with 25 μg of peptide) does the source give for “VIGMDVAASEFF-CIT-SGKYDLD (VIGMDVAASEFF[Cit]SGKYDLD; listed as Homo sapiens) [Enolase 241cit]” here?
Its value is “Detectable responses”.

And the “IFNγ response in CD4 depleted fraction” value (splenocytes [1]; [5])?
The value was “not”.

And the “IFNγ response in CD4 enriched fraction” value (splenocytes [1]; [5])?
Its value is “present”.

And the “IFNγ response in presence of CD4 blocking antibody (GK1.5)” value (splenocytes [1]; [5])?
The value was “significantly reduced”.

And the “IL-10 production in response to peptide stimulation” value (splenocytes [1]; DR4 mice immunised with human 241cit, ex vivo IL-10 ELISpot)?
Its value is “No significant increase in IL-10 production”.

What about the “IFNγ response in presence of human MHC class II blocking antibody (L243)” value (splenocytes [1]; DR4 mice immunised with human 241cit, label = restimulating peptide) of the same substance?
Its value is “significantly reduced”.

And the “IFNγ response with adjuvant CpG/MPLA” value (splenocytes [1]; DR4 mice, single dose)?
Its value is “detected”.

And the “IFNγ response with adjuvant IFA” value (splenocytes [1]; DR4 mice, single dose)?
Its value is “no IFNγ response”.

What about the “IL-10 response with adjuvant CpG/MPLA” value (splenocytes [1]; DR4 mice, single dose) of the same substance?
Its value is “not”.

And the “IL-10 response with adjuvant IFA” value (splenocytes [1]; DR4 mice, single dose)?
The value was “detected”.

And the “IFNγ responses after 6 and 14 days compared to after 2 days” value (splenocytes [1]; DR4 mice, single dose in CpG/MPLA)?
The value was “significantly increased”.

What about the “time after immunisation at which IFNγ response is detectable” value (splenocytes [1]; DR4 mice, single dose in CpG/MPLA, sacrificed after 2, 6 or 14 days) of the same substance?
The value was 6 days.

What about the “IFNγ response to human citrullinated sequence compared to media” value (splenocytes [1]; [6]) of the same substance?
The value was “significant IFNγ response”.

What about the “IFNγ response to mouse citrullinated sequence compared to media” value (splenocytes [1]; [6]) of the same substance?
Its value is “significant IFNγ response”.

And the “immune response to human or mouse wild type (wt) sequence” value (splenocytes [1]; [6])?
The value was “neither”.

What about the “IFNγ response in combination with poly I:C” value (splenocytes [1]; DR4 transgenic mice) of the same substance?
Its value is “induces IFNγ responses”.

And the “IL-10 response in combination with poly I:C” value (splenocytes [1]; DR4 transgenic mice)?
The value was “no IL-10”.

And the “response in the absence of adjuvant” value (splenocytes [1]; peptide immunisation without adjuvant)?
Its value is “no response”.

And the “IFNγ response in presence of CD4 blocking antibody” value (splenocytes [2]; [7])?
The value was “blocked”.

What about the “IFNγ response in presence of CD8 blocking antibody” value (splenocytes [2]; [7]) of the same substance?
Its value is “not”.

What about the “IFNγ response to shorter peptide spanning aa241-255” value (splenocytes [2]; [7]) of the same substance?
The value was “show cross reactivity”.

What about the “IL-10 in response to the cit peptide” value (splenocytes [2]; [7]) of the same substance?
The value was “no IL-10”.

What about the “IFNγ response compared to the wild type peptides” value (splenocytes [2]; DP4 mice, three doses of human Enolase 241cit, label = restimulating peptide) of the same substance?
Its value is “increased IFNγ responses”.

And the “IFNγ response in combination with imiquimod” value (splenocytes [2]; DP4 transgenic mice)?
The value was “induces IFNγ responses”.

What about the “IFNγ response in combination with poly I:C” value (splenocytes [2]; DP4 transgenic mice) of the same substance?
Its value is “induces IFNγ responses”.

What about the “IL-10 response in combination with poly I:C” value (splenocytes [2]; DP4 transgenic mice) of the same substance?
Its value is “no IL-10”.

And the “mice surviving to day 58” value (LLCDR4 tumour)?
The value was 40%.

And the “proliferation index, mean” value (PBMCs [3]; Donor 1, day 4)?
The value was 0.8.

And the “proliferation index, mean” value (PBMCs [3]; Donor 1, day 7)?
The value was 28.6.

And the “proliferation index, mean” value (PBMCs [3]; Donor 1, day 11)?
The value was 20.4.

And the “proliferation index, mean” value (PBMCs [3]; Donor 2, day 11)?
Its value is 2.7.

What about the “proliferation index, mean” value (PBMCs [3]; Donor 4, day 4) of the same substance?
The value was 12.5.

What about the “proliferation index, mean” value (PBMCs [3]; Donor 4, day 7) of the same substance?
The value was 28.

And the proliferation index (PBMCs [3]; Donor 4, day 11)?
Its proliferation index is 4.4.

What about the proliferative response (PBMCs [3]; Donor 6) of the same substance?
The proliferative response was “non-responder”.

And the “healthy donors showing a proliferative response” value (PBMCs [3])?
Its value is 5/6.

And the “healthy donors showing a proliferative response” value (PBMCs [3]; listed as Enolase 241-260 citrullinated at position 253)?
Its value is 4/6.

What about the “IL-17, Granzyme B and TNFα levels above media background” value (PBMCs [4]; Donor 4 supernatants) of the same substance?
Its value is “higher”.

And the “IFNγ and IL-10 levels above media background” value (PBMCs [4]; Donor 4 supernatants at each time point)?
Its value is “citrullinated peptide specific responses which increased over time”.

What about the IFNγ response (PBMCs [4]; cultures on 3 donors) of the same substance?
Its IFNγ response is “IFNγ responses”.

And the “IL-10, TNFα or IL-17 responses” value (PBMCs [4]; cultures on 3 donors)?
The value was “low level”.

And the “IL-17 production by normal donors” value (PBMCs [4]; normal donors stimulated with peptide)?
The value was “no IL-17 was produced”.

Source: US11382985B2, “Anti-tumour immune responses to modified self-epitopes” (Scancell Limited, priority 2015, dated 2022)
